In ChEMBL document CHEMBL6134788, “Development of naphthalimide hydrazide derivatives as potent antibacterial agents against carbapenem-resistant A. baumannii” (RSC Med Chem, 2024):
Converted amounts (≈) assume the structure as drawn.

What was measured:
Acinetobacter baumannii [1] = assay: Antibacterial activity against multi-drug resistant Acinetobacter baumannii clinical isolate 12 assessed as inhibition of bacterial growth incubated for 16 to 18 hrs by CLSI protocol based method; type: functional; details: time 16-18 hrs, read-out: MIC100
Acinetobacter baumannii [2] = assay: Antibacterial activity against multi-drug resistant Acinetobacter baumannii clinical isolate 4 assessed as inhibition of bacterial growth incubated for 16 to 18 hrs by CLSI protocol based method; type: functional; details: time 16-18 hrs, read-out: MIC100
Acinetobacter baumannii [3] = assay: Antibacterial activity against multi-drug resistant Acinetobacter baumannii clinical isolate 3 assessed as inhibition of bacterial growth incubated for 16 to 18 hrs by CLSI protocol based method; type: functional; details: time 16-18 hrs, read-out: MIC100
Staphylococcus aureus [4] = assay: Antibacterial activity against Staphylococcus aureus ATCC 29213 assessed as inhibition of bacterial growth incubated for 16 to 18 hrs by CLSI protocol based method; type: functional; details: time 16-18 hrs, read-out: MIC100
Acinetobacter baumannii [5] = assay: Antibacterial activity against multi-drug resistant Acinetobacter baumannii WL-487 assessed as inhibition of bacterial growth incubated for 16 to 18 hrs by CLSI protocol based method; type: functional; details: time 16-18 hrs, read-out: MIC100
Acinetobacter baumannii [6] = assay: Antibacterial activity against multi-drug resistant Acinetobacter baumannii clinical isolate 9 assessed as inhibition of bacterial growth incubated for 16 to 18 hrs by CLSI protocol based method; type: functional; details: time 16-18 hrs, read-out: MIC100
Acinetobacter baumannii [7] = assay: Antibacterial activity against multi-drug resistant Acinetobacter baumannii clinical isolate 8 assessed as inhibition of bacterial growth incubated for 16 to 18 hrs by CLSI protocol based method; type: functional; details: time 16-18 hrs, read-out: MIC100
Acinetobacter baumannii [8] = assay: Antibacterial activity against multi-drug resistant Acinetobacter baumannii 5-032 assessed as inhibition of bacterial growth incubated for 16 to 18 hrs by CLSI protocol based method; type: functional; details: time 16-18 hrs, read-out: MIC100
Acinetobacter baumannii [9] = assay: Antibacterial activity against carbapenem-resistant Acinetobacter baumannii BAA 1605 assessed as inhibition of bacterial growth incubated for 16 to 18 hrs by CLSI protocol based method; type: functional; details: time 16-18 hrs, read-out: MIC100
Acinetobacter baumannii [10] = assay: Antibacterial activity against multi-drug resistant Acinetobacter baumannii WL-136 assessed as inhibition of bacterial growth incubated for 16 to 18 hrs by CLSI protocol based method; type: functional; details: time 16-18 hrs, read-out: MIC100
Acinetobacter baumannii [11] = assay: Antibacterial activity against multi-drug resistant Acinetobacter baumannii clinical isolate 6 assessed as inhibition of bacterial growth incubated for 16 to 18 hrs by CLSI protocol based method; type: functional; details: time 16-18 hrs, read-out: MIC100
Acinetobacter baumannii [12] = assay: Antibacterial activity against multi-drug resistant Acinetobacter baumannii 5-143 assessed as inhibition of bacterial growth incubated for 16 to 18 hrs by CLSI protocol based method; type: functional; details: time 16-18 hrs, read-out: MIC100
Acinetobacter baumannii [13] = assay: Antibacterial activity against multi-drug resistant Acinetobacter baumannii clinical isolate 1 assessed as inhibition of bacterial growth incubated for 16 to 18 hrs by CLSI protocol based method; type: functional; details: time 16-18 hrs, read-out: MIC100
Acinetobacter baumannii [14] = assay: Antibacterial activity against multi-drug resistant Acinetobacter baumannii clinical isolate 11 assessed as inhibition of bacterial growth incubated for 16 to 18 hrs by CLSI protocol based method; type: functional; details: time 16-18 hrs, read-out: MIC100
Acinetobacter baumannii [15] = assay: Antibacterial activity against multi-drug resistant Acinetobacter baumannii Naval-18 assessed as inhibition of bacterial growth incubated for 16 to 18 hrs by CLSI protocol based method; type: functional; details: time 16-18 hrs, read-out: MIC100
Acinetobacter baumannii [16] = assay: Antibacterial activity against Acinetobacter baumannii ATCC 17978 assessed as inhibition of bacterial growth incubated for 16 to 18 hrs by CLSI protocol based method; type: functional; details: time 16-18 hrs, read-out: MIC100
Acinetobacter baumannii [17] = assay: Antibacterial activity against multi-drug resistant Acinetobacter baumannii clinical isolate 10 assessed as inhibition of bacterial growth incubated for 16 to 18 hrs by CLSI protocol based method; type: functional; details: time 16-18 hrs, read-out: MIC100
Acinetobacter baumannii [18] = assay: Antibacterial activity against multi-drug resistant Acinetobacter baumannii clinical isolate 2 assessed as inhibition of bacterial growth incubated for 16 to 18 hrs by CLSI protocol based method; type: functional; details: time 16-18 hrs, read-out: MIC100
Acinetobacter baumannii [19] = assay: Antibacterial activity against multi-drug resistant Acinetobacter baumannii Naval-17 assessed as inhibition of bacterial growth incubated for 16 to 18 hrs by CLSI protocol based method; type: functional; details: time 16-18 hrs, read-out: MIC100
[20] = Cytotoxicity against African green monkey Vero cells assessed as reduction in cell viability incubated for 72 hrs by MTT assay; type: toxicity, cell-based; details: chlorocebus sabaeus
Pseudomonas aeruginosa = assay: Antibacterial activity against Pseudomonas aeruginosa ATCC 27853 assessed as inhibition of bacterial growth incubated for 16 to 18 hrs by CLSI protocol based method; type: functional; details: time 16-18 hrs, read-out: MIC100
Klebsiella pneumoniae = assay: Antibacterial activity against Klebsiella pneumoniae BAA 1705 assessed as inhibition of bacterial growth incubated for 16 to 18 hrs by CLSI protocol based method; type: functional; details: time 16-18 hrs, read-out: MIC100
Acinetobacter baumannii [21] = assay: Antibacterial activity against multi-drug resistant Acinetobacter baumannii clinical isolate 7 assessed as inhibition of bacterial growth incubated for 16 to 18 hrs by CLSI protocol based method; type: functional; details: time 16-18 hrs, read-out: MIC100
[22] = Selectivity index, ratio of CC50 for cytotoxicity against African green monkey VERO cells to MIC for antibacterial activity against carbapenem-resistant Acinetobacter baumannii BAA 1605 assessed as inhibition of bacterial growth; type: toxicity, cell-based; details: read-out: Selectivity Index
Acinetobacter baumannii [23] = assay: Antibacterial activity against multi-drug resistant Acinetobacter baumannii H72721 assessed as inhibition of bacterial growth incubated for 16 to 18 hrs by CLSI protocol based method; type: functional; details: time 16-18 hrs, read-out: MIC100
Acinetobacter baumannii [24] = assay: Antibacterial activity against multi-drug resistant Acinetobacter baumannii Naval-81 assessed as inhibition of bacterial growth incubated for 16 to 18 hrs by CLSI protocol based method; type: functional; details: time 16-18 hrs, read-out: MIC100
Escherichia coli = assay: Antibacterial activity against Escherichia coli ATCC 25922 assessed as inhibition of bacterial growth incubated for 16 to 18 hrs by CLSI protocol based method; type: functional; details: time 16-18 hrs, read-out: MIC100
Acinetobacter baumannii [25] = assay: Antibacterial activity against multi-drug resistant Acinetobacter baumannii clinical isolate 5 assessed as inhibition of bacterial growth incubated for 16 to 18 hrs by CLSI protocol based method; type: functional; details: time 16-18 hrs, read-out: MIC100
Acinetobacter baumannii [26] = assay: Antibacterial activity against multi-drug resistant Acinetobacter baumannii 5-109 assessed as inhibition of bacterial growth incubated for 16 to 18 hrs by CLSI protocol based method; type: functional; details: time 16-18 hrs, read-out: MIC100
Acinetobacter baumannii [27] = assay: Antibacterial activity against multi-drug resistant Acinetobacter baumannii NR-17777 assessed as inhibition of bacterial growth incubated for 16 to 18 hrs by CLSI protocol based method; type: functional; details: time 16-18 hrs, read-out: MIC100
Acinetobacter baumannii [28] = assay: Antibacterial activity against multi-drug resistant Acinetobacter baumannii BC-5 assessed as inhibition of bacterial growth incubated for 16 to 18 hrs by CLSI protocol based method; type: functional; details: time 16-18 hrs, read-out: MIC100
Acinetobacter baumannii [29] = assay: Antibacterial activity against multi-drug resistant Acinetobacter baumannii 5-189 assessed as inhibition of bacterial growth incubated for 16 to 18 hrs by CLSI protocol based method; type: functional; details: time 16-18 hrs, read-out: MIC100
Staphylococcus aureus [30] = assay: Antibacterial activity against Staphylococcus aureus; type: functional

`C[C@H]1COc2c(N3CCN(C)CC3)c(F)cc3c(=O)c(C(=O)O)cn1c23` [LEVOFLOXACIN ANHYDROUS] showed an MIC (Acinetobacter baumannii [1]) of 4 µg/mL (≈ 11.1 µM), an MIC (Acinetobacter baumannii [2]) greater than 64 µg/mL and an MIC (Acinetobacter baumannii [3]) of 64 µg/mL (≈ 177 µM). The MIC (Staphylococcus aureus [4]) was 0.25 µg/mL (≈ 0.692 µM), the MIC (Acinetobacter baumannii [5]) was 0.125 µg/mL (≈ 0.346 µM) and the MIC (Acinetobacter baumannii [6]) was 4 µg/mL (≈ 11.1 µM). The MIC (Acinetobacter baumannii [7]) was 4 µg/mL (≈ 11.1 µM), the MIC (Acinetobacter baumannii [8]) was 0.25 µg/mL (≈ 0.692 µM) and the MIC (Acinetobacter baumannii [9]) was 4 µg/mL (≈ 11.1 µM). The MIC (Acinetobacter baumannii [10]) was 0.25 µg/mL (≈ 0.692 µM), the MIC (Acinetobacter baumannii [11]) was 4 µg/mL (≈ 11.1 µM) and the MIC (Acinetobacter baumannii [12]) was 1 µg/mL (≈ 2.77 µM). For the same compound, the MIC (Acinetobacter baumannii [13]) was 32 µg/mL (≈ 88.6 µM), the MIC (Acinetobacter baumannii [14]) was 64 µg/mL (≈ 177 µM) and the MIC (Acinetobacter baumannii [15]) was 4 µg/mL (≈ 11.1 µM). It also gave an MIC (Acinetobacter baumannii [16]) of 0.03 µg/mL (≈ 0.083 µM), an MIC (Acinetobacter baumannii [17]) greater than 64 µg/mL and an MIC (Acinetobacter baumannii [18]) greater than 64 µg/mL. The MIC (Acinetobacter baumannii [19]) was 16 µg/mL (≈ 44.3 µM) and the CC50 at 72 h [20] was greater than 400 µg/mL.
With `O=C(CCN1C(=O)c2cccc3cccc(c23)C1=O)NNc1ccc(Cl)cc1` the MIC (Pseudomonas aeruginosa) was greater than 64 µg/mL, the MIC (Acinetobacter baumannii [1]) was 1 µg/mL (≈ 2.54 µM) and the MIC (Klebsiella pneumoniae) was greater than 64 µg/mL. The MIC (Acinetobacter baumannii [2]) was 1 µg/mL (≈ 2.54 µM), the MIC (Acinetobacter baumannii [21]) was 1 µg/mL (≈ 2.54 µM) and the MIC (Acinetobacter baumannii [3]) was 0.5 µg/mL (≈ 1.27 µM). For the same compound, the selectivity ratio [22] was greater than 200, the MIC (Staphylococcus aureus [4]) was greater than 64 µg/mL and the MIC (Acinetobacter baumannii [5]) was 1 µg/mL (≈ 2.54 µM). For the same compound, the MIC (Acinetobacter baumannii [6]) was 1 µg/mL (≈ 2.54 µM), the MIC (Acinetobacter baumannii [7]) was 1 µg/mL (≈ 2.54 µM) and the MIC (Acinetobacter baumannii [8]) was 2 µg/mL (≈ 5.08 µM). For the same compound, the MIC (Acinetobacter baumannii [9]) was 0.5 µg/mL (≈ 1.27 µM), the MIC (Acinetobacter baumannii [10]) was 1 µg/mL (≈ 2.54 µM) and the MIC (Acinetobacter baumannii [11]) was 2 µg/mL (≈ 5.08 µM). It also gave an MIC (Acinetobacter baumannii [12]) of 2 µg/mL (≈ 5.08 µM), an MIC (Acinetobacter baumannii [13]) of 1 µg/mL (≈ 2.54 µM) and an MIC (Acinetobacter baumannii [23]) of 1 µg/mL (≈ 2.54 µM). For the same compound, the MIC (Acinetobacter baumannii [14]) was 2 µg/mL (≈ 5.08 µM), the MIC (Acinetobacter baumannii [24]) was 1 µg/mL (≈ 2.54 µM) and the MIC (Acinetobacter baumannii [15]) was 1 µg/mL (≈ 2.54 µM). The MIC (Escherichia coli) was greater than 64 µg/mL, the MIC (Acinetobacter baumannii [25]) was 2 µg/mL (≈ 5.08 µM) and the MIC (Acinetobacter baumannii [16]) was 1 µg/mL (≈ 2.54 µM). The MIC (Acinetobacter baumannii [17]) was 2 µg/mL (≈ 5.08 µM), the MIC (Acinetobacter baumannii [26]) was 2 µg/mL (≈ 5.08 µM) and the MIC (Acinetobacter baumannii [27]) was 2 µg/mL (≈ 5.08 µM). For the same compound, the MIC (Acinetobacter baumannii [28]) was 1 µg/mL (≈ 2.54 µM), the MIC (Acinetobacter baumannii [29]) was 2 µg/mL (≈ 5.08 µM) and the MIC (Acinetobacter baumannii [18]) was 1 µg/mL (≈ 2.54 µM). For the same compound, the MIC (Acinetobacter baumannii [19]) was 1 µg/mL (≈ 2.54 µM) and the CC50 at 72 h [20] was greater than 100 µg/mL.
For `Cc1ccc2cc(C(=O)N3CCN(CCN4C(=O)c5cccc6cccc(c56)C4=O)CC3)c(=O)oc2c1`, the MIC (Staphylococcus aureus [30]) was 0.5 µg/mL (≈ 1.01 µM).
